Assay results as given in patent publication US20250215029A1 (Recludix Pharma, Inc., priority 2022, published 2025).

Key:
[1] = biological target: T1, Recombinant STAT3 protein (STAT3 (G127-I722)) (Homo sapiens, UniProt P40763); assay: STAT3 Fluorescence Polarization (FP) Assay; format: binding; conditions: STAT3 (G127-I722) 25 nM, probe 5-FAM-GpYLPQTV-NH2 2 nM, 45-minute incubation; read-out: STAT3 (FP assay IC50 class)
T1 construct: Recombinant STAT3 protein (STAT3 (G127-I722))
Summary of the method: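 Read-out is fluorescence polarization (mP) after 45 min at room temperature, with IC50 fitted by nonlinear regression against log compound concentration. Mixture: 25 nM STAT3 (G127-I722), 2 nM 5-FAM-GpYLPQTV-NH2 phosphopeptide, 10 mM HEPES pH 7.4 buffer, 1% DMSO.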

[2] = biological target: T2, Recombinant STAT6 protein (STAT6 (W123-T658)) (Homo sapiens, UniProt P42226); assay: STAT6 Fluorescence Polarization (FP) Assay; format: binding; conditions: STAT6 (W123-T658) 250 nM, probe 5-FAM-Ap[…]-NH2 2 nM, 45-minute incubation; read-out: STAT6 (FP assay IC50 class)
T2 construct: Recombinant STAT6 protein (STAT6 (W123-T658))
T2 sequence (P42226 123-658): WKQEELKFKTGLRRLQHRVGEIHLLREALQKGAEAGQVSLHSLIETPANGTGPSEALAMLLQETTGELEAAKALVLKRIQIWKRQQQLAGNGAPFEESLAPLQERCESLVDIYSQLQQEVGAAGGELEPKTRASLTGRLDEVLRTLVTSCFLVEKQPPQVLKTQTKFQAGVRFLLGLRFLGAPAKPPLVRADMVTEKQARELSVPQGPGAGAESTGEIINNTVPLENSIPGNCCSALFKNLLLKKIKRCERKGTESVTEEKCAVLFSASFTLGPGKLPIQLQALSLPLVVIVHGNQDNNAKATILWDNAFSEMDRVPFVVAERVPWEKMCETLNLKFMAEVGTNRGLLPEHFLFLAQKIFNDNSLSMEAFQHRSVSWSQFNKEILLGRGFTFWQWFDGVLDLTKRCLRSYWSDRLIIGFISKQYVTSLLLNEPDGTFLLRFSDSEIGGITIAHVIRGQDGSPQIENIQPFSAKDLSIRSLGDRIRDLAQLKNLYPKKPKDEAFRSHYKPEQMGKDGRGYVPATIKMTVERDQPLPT
Summary of the method: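 Fluorescence polarization (mP) read-out: 250 nM STAT6 (W123-T658) plus 2 nM 5-FAM phosphotyrosine peptide, 45 min, room temperature, 1% DMSO. IC50 by nonlinear fit of mP against log compound concentration.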

T1 sequence (P40763 127-722): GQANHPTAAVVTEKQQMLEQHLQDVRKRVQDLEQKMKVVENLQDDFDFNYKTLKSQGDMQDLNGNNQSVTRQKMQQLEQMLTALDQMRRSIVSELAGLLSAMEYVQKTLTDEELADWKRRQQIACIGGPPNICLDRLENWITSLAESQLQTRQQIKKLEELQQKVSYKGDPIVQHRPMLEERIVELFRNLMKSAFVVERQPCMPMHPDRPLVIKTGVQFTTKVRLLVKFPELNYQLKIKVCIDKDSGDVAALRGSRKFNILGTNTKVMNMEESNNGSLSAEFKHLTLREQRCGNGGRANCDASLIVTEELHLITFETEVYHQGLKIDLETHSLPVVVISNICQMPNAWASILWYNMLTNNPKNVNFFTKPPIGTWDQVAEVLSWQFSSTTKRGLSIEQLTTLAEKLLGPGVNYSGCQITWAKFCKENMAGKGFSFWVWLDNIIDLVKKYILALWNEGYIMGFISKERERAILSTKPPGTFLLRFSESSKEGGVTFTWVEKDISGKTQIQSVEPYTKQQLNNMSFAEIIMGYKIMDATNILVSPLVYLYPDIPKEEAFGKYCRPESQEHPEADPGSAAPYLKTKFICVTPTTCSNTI

SMILES	IC50 [1]	IC50 [2]
O=C(N[C@H]1CCCC[C@H]2CC[C@@H](C(=O)N3CCC(c4cccnc4)CC3)N2C1=O)c1cc2cc(C(F)P(=O)(O)O)ccc2s1 (stereo partly drawn) [Compound 564, (fluoro(2-(((3S,6S,10aS)-5-oxo-3-(4-(pyridin-3-yl)piperidine-1-carbonyl)decahydropyrrolo[1,2-a]azocin-6-yl)carbamoyl)benzo[b]thiophen-5-yl)methyl)phosphonic acid]	0.1 to 1 µM	3 to 30 µM
O=C(N[C@H]1CCC[C@H]2CC[C@@H](C(=O)N3CC(c4ccccc4F)C3)N2C1=O)c1cc2cc(C(F)P(=O)(O)O)ccc2s1 (stereo partly drawn) [Compound 565, (fluoro(2-(((3S,6S,9aS)-3-(3-(2-fluorophenyl)azetidine-1-carbonyl)-5-oxooctahydro-1H-pyrrolo[1,2-a]azepin-6-yl)carbamoyl)benzo[b]thiophen-5-yl)methyl)phosphonic acid]	0.1 to 1 µM	3 to 30 µM
O=C(N[C@H]1CCCC[C@H]2CC[C@@H](C(=O)N3CC(c4cnccc4F)C3)N2C1=O)c1cc2cc(CP(=O)(O)O)ccc2s1 [Compound 566, ((2-(((3S,6S,10aS)-3-(3-(4-fluoropyridin-3-yl)azetidine-1-carbonyl)-5-oxodecahydropyrrolo[1,2-a]azocin-6-yl)carbamoyl)benzo[b]thiophen-5-yl)methyl)phosphonic acid]	< 0.1 µM	3 to 30 µM
COCC(=O)NC1(c2ccccn2)CN(C(=O)[C@@H]2CC[C@@H]3CCCC[C@H](NC(=O)c4cc5cc(C(F)P(=O)(O)O)ccc5s4)C(=O)N32)C1 (stereo partly drawn) [Compound 567, (fluoro(2-(((3S,6S,10aS)-3-(3-(2-methoxyacetamido)-3-(pyridin-2-yl)azetidine-1-carbonyl)-5-oxodecahydropyrrolo[1,2-a]azocin-6-yl)carbamoyl)benzo[b]thiophen-5-yl)methyl)phosphonic acid]	0.1 to 1 µM	3 to 30 µM
COCCNC1(c2ccccn2)CN(C(=O)[C@@H]2CC[C@@H]3CCCC[C@H](NC(=O)c4cc5cc(C(F)P(=O)(O)O)ccc5s4)C(=O)N32)C1 (stereo partly drawn) [Compound 568, (fluoro(2-(((3S,6S,10aS)-3-(3-((2-methoxyethyl)amino)-3-(pyridin-2-yl)azetidine-1-carbonyl)-5-oxodecahydropyrrolo[1,2-a]azocin-6-yl)carbamoyl)benzo[b]thiophen-5-yl)methyl)phosphonic acid]	< 0.1 µM	3 to 30 µM
Cn1ccc(N2C(=O)N(C(=O)[C@@H]3CC[C@@H]4CCCC[C@H](NC(=O)c5cc6cc(C(F)P(=O)(O)O)ccc6s5)C(=O)N43)C3(CC3)C2=O)cc1=O (stereo partly drawn) [Compound 569, (fluoro(2-(((3S,6S,10aS)-3-(6-(1-methyl-2-oxo-1,2-dihydropyridin-4-y1)-5,7-dioxo-4,6-diazaspiro[2.4]heptane-4-carbonyl)-5-oxodecahydropyrrolo[1,2-a]azocin-6-yl)carbamoyl)benzo[b]thiophen-5-yl)methyl)phosphonic acid]	1 to 10 µM	0.3 to 3 µM
O=C(N[C@H]1CCCC[C@H]2CC[C@@H](C(=O)N3CC(c4ccccc4)CC34CC4)N2C1=O)c1ccc2cnc(CP(=O)(O)O)cc2c1 (stereo partly drawn) [Compound 570, ((6-(((3S,6S,10aS)-5-oxo-3-(6-phenyl-4-azaspiro[2.4]heptane-4-carbonyl)decahydropyrrolo[1,2-a]azocin-6-yl)carbamoyl)isoquinolin-3-yl)methyl)phosphonic acid]	1 to 10 µM	3 to 30 µM
O=C(N[C@H]1CCCC[C@H]2CC[C@@H](C(=O)N3CC(c4ccccc4)CC34CC4)N2C1=O)c1ccc2ccc(CP(=O)(O)O)nc2c1 (stereo partly drawn) [Compound 571, ((7-(((3S,6S,10aS)-5-oxo-3-(6-phenyl-4-azaspiro[2.4]heptane-4-carbonyl)decahydropyrrolo[1,2-a]azocin-6-yl)carbamoyl)quinolin-2-yl)methyl)phosphonic acid]	1 to 10 µM	3 to 30 µM
O=C(N[C@H]1CCCC[C@H]2CC[C@@H](C(=O)N3C(=O)N(c4ccn(C(F)F)c(=O)c4)C(=O)C34CC4)N2C1=O)c1cc2cc(C(F)P(=O)(O)O)ccc2s1 (stereo partly drawn) [Compound 572, ((2-(((3S,6S,10aS)-3-(6-(1-(difluoromethyl)-2-oxo-1,2-dihydropyridin-4-yl)-5,7-dioxo-4,6-diazaspiro[2.4]heptane-4-carbonyl)-5-oxodecahydropyrrolo[1,2-a]azocin-6-yl)carbamoyl)benzo[b]thiophen-5-yl)fluoromethyl)phosphonic acid]	1 to 10 µM	0.3 to 3 µM
O=C(N[C@H]1CCCC[C@H]2CC[C@@H](C(=O)N3CC(N4CCS(=O)(=O)CC4)C3)N2C1=O)c1cc2cc(C(F)P(=O)(O)O)ccc2s1 (stereo partly drawn) [Compound 573, ((2-(((3S,6S,10aS)-3-(3-(1,1-dioxidothiomorpholino)azetidine-1-carbonyl)-5-oxodecahydropyrrolo[1,2-a]azocin-6-yl)carbamoyl)benzo[b]thiophen-5-yl)fluoromethyl)phosphonic acid]	0.1 to 1 µM	3 to 30 µM
O=C(N[C@H]1CCC[C@H]2CC[C@@H](C(=O)N3CC(c4cccnc4)C3)N2C1=O)c1cc2cc(CP(=O)(O)O)ncc2s1 [Compound 574, ((2-(((3S,6S,9aS)-5-oxo-3-(3-(pyridin-3-yl)azetidine-1-carbonyl)octahydro-1H-pyrrolo[1,2-a]azepin-6-yl)carbamoyl)thieno[2,3-c]pyridin-5-yl)methyl)phosphonic acid]	1 to 10 µM	3 to 30 µM
CCc1ccncc1C1CN(C(=O)[C@@H]2CC[C@@H]3CCC[C@H](NC(=O)c4cn5cc(CP(=O)(O)O)ccc5n4)C(=O)N32)C1 [Compound 575, ((2-(((3S,6S,9aS)-3-(3-(4-ethylpyridin-3-yl)azetidine-1-carbonyl)-5-oxooctahydro-1H-pyrrolo[1,2-a]azepin-6-yl)carbamoyl)imidazo[1,2-a]pyridin-6-yl)methyl)phosphonic acid]	1 to 10 µM	3 to 30 µM
CCc1ccncc1C1CN(C(=O)[C@@H]2CC[C@@H]3CCC[C@H](NC(=O)c4ccc5sc(CP(=O)(O)O)cc5c4)C(=O)N32)C1 [Compound 576, ((5-(((3S,6S,9aS)-3-(3-(4-ethylpyridin-3-yl)azetidine-1-carbonyl)-5-oxooctahydro-1H-pyrrolo[1,2-a]azepin-6-yl)carbamoyl)benzo[b]thiophen-2-yl)methyl)phosphonic acid]	0.1 to 1 µM	3 to 30 µM
COc1cc(F)ncc1C1CN(C(=O)[C@@H]2CC[C@@H]3CCC[C@H](NC(=O)c4cc5cc(CP(=O)(O)O)ccc5s4)C(=O)N32)C1 [Compound 577, ((2-(((3S,6S,9aS)-3-(3-(6-fluoro-4-methoxypyridin-3-yl)azetidine-1-carbonyl)-5-oxooctahydro-1H-pyrrolo[1,2-a]azepin-6-yl)carbamoyl)benzo[b]thiophen-5-yl)methyl)phosphonic acid]	1 to 10 µM	3 to 30 µM
COc1ccnc(F)c1C1CN(C(=O)[C@@H]2CC[C@@H]3CCC[C@H](NC(=O)c4cc5cc(CP(=O)(O)O)ccc5s4)C(=O)N32)C1 [Compound 578, ((2-(((3S,6S,9aS)-3-(3-(2-fluoro-4-methoxypyridin-3-yl)azetidine-1-carbonyl)-5-oxooctahydro-1H-pyrrolo[1,2-a]azepin-6-yl)carbamoyl)benzo[b]thiophen-5-yl)methyl)phosphonic acid]	1 to 10 µM	3 to 30 µM
O=C(N[C@H]1CCCC[C@H]2CC[C@@H](C(=O)N3CCC(c4ccccn4)CC3)N2C1=O)c1cc2cc(C(F)P(=O)(O)O)ccc2s1 (stereo partly drawn) [Compound 579, (fluoro(2-(((3S,6S,10aS)-5-oxo-3-(4-(pyridin-2-yl)piperidine-1-carbonyl)decahydropyrrolo[1,2-a]azocin-6-yl)carbamoyl)benzo[b]thiophen-5-yl)methyl)phosphonic acid]	0.1 to 1 µM	3 to 30 µM
Cc1nccc(F)c1C1CN(C(=O)[C@@H]2CC[C@@H]3CCC[C@H](NC(=O)c4cc5cc(CP(=O)(O)O)ccc5s4)C(=O)N32)C1 [Compound 580, ((2-(((3S,6S,9aS)-3-(3-(4-fluoro-2-methylpyridin-3-yl)azetidine-1-carbonyl)-5-oxooctahydro-1H-pyrrolo[1,2-a]azepin-6-yl)carbamoyl)benzo[b]thiophen-5-yl)methyl)phosphonic acid]	1 to 10 µM	3 to 30 µM
